Experimental data as given in patent US8263385B2, “S-triazine-herbicide-degrading bacteria, product for the bioremediation and method of bioremediation” (priority 2007, dated 2012).

What follows are compounds tested on Pseudomonas sp. strain MHP41 (assay: Antibiotic sensitivity of strain MHP41).
Format: cell-based
In the case of `CC1(C)S[C@@H]2[C@H](NC(=O)[C@H](N)c3ccccc3)C(=O)N2[C@H]1C(=O)O` [ampicillin], the “sensitivity or resistance of the strain to the antibiotic” value (“sensitivity or resistance of the strain” below) is reported as “natural resistance”. With `CC1(C)S[C@@H]2[C@H](NC(=O)C(C(=O)O)c3ccccc3)C(=O)N2[C@H]1C(=O)O` (stereo partly drawn) [carbamicillin] the “sensitivity or resistance of the strain” value was “sensitive”. For `[H]/N=C(/N)N[C@H]1[C@H](O)[C@@H](O)[C@H](O[C@@H]2O[C@@H](C)[C@](O)(C=O)[C@H]2O[C@@H]2O[C@@H](CO)[C@H](O)[C@@H](O)[C@@H]2NC)[C@@H](N/C(N)=N\[H])[C@@H]1O` [streptomycin], the “sensitivity or resistance of the strain” value was “sensitive”.
